“Also recorded” adds a separate entry of the source. Where two headings read alike, the source gives them in different places.
How the values were obtained:
[1] = test system: Caco-2 cell monolayers; experiment: Transport experiment with Caco-2 cell monolayers; settings: for transport percentage: Caco-2 cell monolayers; for After transported with Caco-2 cell monolayers: intestinal bacterial transformed AEOF
Description: (§1) The Caco-2 cells were cultured in the culture medium consisting of Dulbecco’s Modified Eagle Medium (DMEM, Gibco Inc., Grand Island, CA)-fetal bovine serum (FBS, Gibco Inc., Grand Island, CA)-nonessential amino acids (NEAA, Corning Costar, Cambridge, MA)-‘penicillin-streptomycin’ (Corning Costar, Cambridge, MA) (100:10:1:1, v/v/v/v) in 25 cm^2 flasks, which were incubated in 5% CO2 and constant temperature (37 °C) and humidity in the incubator. The culture medium was replaced every 2 or 3 days, and the cells were split 1:2 or 1:3 to conduct passage when they reached 80% confluence.
(§2) About 1.5 mL of the culture medium was added into the basal (BL) side of each well of the 12-well Transwell plates (insert diameter 12 mm, pore size 3.0 μm, membrane growth area 1.12 cm^2, Corning Costar, Cambridge, MA), and 0.5 mL of the Caco-2 cell suspension at the density of 2.0 × 10^5 cells/mL was seeded into the apical (AP) side of each insert. The cells were incubated in 5% CO2 and constant temperature (37 °C) and humidity in the incubator. The culture medium in both AP and BL sides was replaced every other day in the first week, then that in AP side was replaced every day and that in BL side was replaced every other day. The cells would differentiate and form a confluent monolayer. The integrity and viability of the cell monolayers were evaluated by measuring transepithelial electrical resistance (TEER) values in the culture medium at 37 °C using a Millicell®-ERS system (Millipore Corp., Bedford, MA), and only the inserts with the TEER above 600 Ω/cm^2 on day 21 were selected to perform the transport experiment.
(§3) About 200 μL of the solution in the receiving chambers was collected at 30, 60, 90, 120, 150, and 180 min, respectively, and then the same volume of HBSS was added. All samples were stored at −20 °C and filtered through a 0.45 μm membrane filter for HPLC analysis.
(§4) The HPLC conditions used for the analysis of the intestinal bacterial transformed AEOF before and after transport experiment was the same as above.
(§5) The transport percentage (%) was calculated using the formula transport percentage (%) = dQ/(C0 × V) × 100, wherein, V (mL) represented the volume of the donor compartment.

[2] = Transport experiment with Caco-2 cell monolayers; settings: human, Caco-2, Papp, Caco-2 cell monolayers; for Papp at 180 min, 10 mg/mL: extract 10 mg/mL; for Papp at 180 min, 20 mg/mL: extract 20 mg/mL; for Papp at 180 min, 30 mg/mL: extract 30 mg/mL
Description: as §1, §2, §3, §4, §5

[3] = test system: activated intestinal bacteria; experiment: Intestinal bacterial transformation of AEOF; assay type: in vitro ADME, human; settings: for After transformed by intestinal bacteria / Before transformed by intestinal bacteria: content in the extract; for transformation by intestinal bacteria (in words): in AEOF 15.0, 30.0, 60.0 mg/mL, up to 72 h, single person derived- or multiple people-derived intestinal bacteria
Description: Each 3 g of fresh feces from 3 healthy men and 3 healthy women of 23–25 years old was suspended in 200 mL of general anaerobic medium (GAM, including L-cystine hydrochloride, soluble starch, pepsin, tryptone, peptone, soy peptone, serum powder, yeast extract, beef extract, and beef liver extract powder purchased from Beijing Aoboxing Biotechnology Co., Ltd, Beijing, China) broth prepared as per a literature (Yang & Xu [2011]), respectively, and cultured in an anaerobic incubator (Shanghai Cimomedical Appliance Co., Ltd., Shanghai, China) at 37 °C for 24 h (Tsuchihashi et al. [2009]). […] Each 100 μL of the activated intestinal bacteria from the 6 volunteers were added into 11.4 mL of GAM, mixed adequately, and incubated in the same conditions as previously to obtain the mixture of activated intestinal bacteria. About 0.4513, 0.9026, and 1.8052 g of AEOF were dissolved in 30 mL of GAM on a super clean bench (Beijing Great Wall Air Purification Co. Ltd., Beijing, China), respectively, to generate the experimental groups. Then, the triplicate GAM containing AEOF was divided into 24 screw-cap test tubes, and each screw-cap test tube had 3 mL of the GAM and 100 μL of the activated intestinal bacteria and the mixture of activated intestinal bacteria, respectively. They were incubated under the same condition, and the test tubes of each concentration in triplicate were removed from the anaerobic incubator at 0, 2, 4, 6, 12, 24, 48, and 72 h. About 100 μL of the bacterial suspension was replaced with GAM to obtain the control group. The GAM absent of the AEOF was used as the blank group. […] About 300 μL of the supernatant was collected, filtered through a 0.45 μm membrane filter, and stored at −20 °C before HPLC analysis.
The HPLC analysis was performed using a Waters 1500 series (Waters Business Operations, Milford, MA) equipped with a 1525 binary HPLC pump, an on-line degasser, a manual injector and a 2489 UV/Visible detector. […] The temperature was set at 35 °C and the UV detecting wavelengths were 254 and 365 nm. The mobile phase consisted of acetonitrile (HPLC grade, Fisher Co., Pittsburgh, PA) (A) and 1.0% acetic acid (Beijing Chemical Works, Beijing, China) in purified water (v/v) (B), and the gradient elution program was as follows: 5–10% A (0–5 min), 10–20% A (5–10 min), 20–25% A (10–22 min), 25–40% A (22–35 min), 40–50% A (35–40 min), and 50–5% A (40–42 min) at a flow rate of 1.0 mL/min. The volume injected was 5 μL.

[4] = test system: everted gut sacs (jejunum); experiment: Absorption experiment with everted gut sacs; settings: for transport percentage: Everted gut sacs, AP→BL; for After transported with everted gut sacs: intestinal bacterial transformed AEOF
[5] = Absorption experiment with everted gut sacs; settings: Sprague-Dawley, rat
[6] = previous study, cited from earlier work
[7] = first of three lines per compound (lowest concentration; 10, 20, 30 mg/mL)
[8] = second of three lines per compound (middle concentration, not given)
[9] = third of three lines per compound (highest concentration, not given)
[10] = first of three lines per compound (lowest extract concentration)
[11] = first of three lines per compound (lowest extract concentration; AEOF 15, 30, 60 mg/mL)
[12] = second of three lines per compound (middle extract concentration, not given)
[13] = third of three lines per compound (highest extract concentration, not given)
[14] = ref Liu et al. [2014], Wu et al. [2014]

Row | SMILES | transport percentage ([1]; extract 10 mg/mL, AP→BL) | transport percentage ([1]; extract 10 mg/mL, BL→AP) | transport percentage ([1]; extract 20 mg/mL, AP→BL) | transport percentage ([1]; extract 20 mg/mL, BL→AP) | transport percentage ([1]; extract 30 mg/mL, AP→BL) | transport percentage ([1]; extract 30 mg/mL, BL→AP) | After transported with Caco-2 cell monolayers [1, 7] | After transported with Caco-2 cell monolayers [1, 8] | After transported with Caco-2 cell monolayers [1, 9] | Papp at 180 min, 10 mg/mL ([2]; AP→BL) | Papp at 180 min, 10 mg/mL ([2]; BL→AP) | Papp at 180 min, 20 mg/mL ([2]; AP→BL) | Papp at 180 min, 20 mg/mL ([2]; BL→AP) | Papp at 180 min, 30 mg/mL ([2]; AP→BL) | Papp at 180 min, 30 mg/mL ([2]; BL→AP) | After transformed by intestinal bacteria [3, 10] | Before transformed by intestinal bacteria [3, 11] | After transformed by intestinal bacteria [3, 12] | Before transformed by intestinal bacteria [3, 12] | After transformed by intestinal bacteria [3, 13] | further results
1 | O=C1CC[C@H]2c3cc(O)c(O)cc3CCN12 [trolline] | 135.43% | 93.13% | 153.03% | 78.21% | 130.00% | 74.30% | 8.10 µg/mL | 13.59 µg/mL | 19.15 µg/mL | 112 ± 7 ×10⁻⁶ cm/s | 231 ± 7 ×10⁻⁶ cm/s | 127 ± 12 ×10⁻⁶ cm/s | 194 ± 2 ×10⁻⁶ cm/s | 107 ± 6 ×10⁻⁶ cm/s | 184 ± 11 ×10⁻⁶ cm/s | 22.37 µg/mL | 22.80 µg/mL | 36.28 µg/mL | 35.96 µg/mL | 71.00 µg/mL | Before transformed by intestinal bacteria [3, 13]: 73.23 µg/mL; transformation by intestinal bacteria (in words) [3]: not transformed; also recorded: not changed; transport percentage ([4]; extract 10 mg/mL): 29.42%; transport percentage ([4]; extract 20 mg/mL): 20.32%; transport percentage ([4]; extract 30 mg/mL): 30.00%; After transported with everted gut sacs [4, 7]: 4.33 µg/mL; After transported with everted gut sacs [4, 8]: 6.97 µg/mL; After transported with everted gut sacs [4, 9]: 14.76 µg/mL; Papp at 180 min, 10 mg/mL [5]: 138 ± 1 ×10⁻⁶ cm/s; Papp at 180 min, 20 mg/mL [5]: 107 ± 5 ×10⁻⁶ cm/s; Papp at 180 min, 30 mg/mL [5]: 151 ± 4 ×10⁻⁶ cm/s; absorption mechanism [6, 14]: an associative mechanism including both active and passive transports
2 | O=c1cc(-c2ccc(O)c(O)c2)oc2c(C3OC(CO)C(O)C(O)C3OC3OC(CO)C(O)C(O)C3O)c(O)cc(O)c12 [2″-O-β-L-galactopyranosylorientin] | 13.41% | 8.72% | 22.93% | 14.08% | 49.29% | 16.83% | 0.41 µg/mL | 1.44 µg/mL | 4.78 µg/mL | 11.1 ± 0.9 ×10⁻⁶ cm/s | 21.6 ± 2.4 ×10⁻⁶ cm/s | 19 ± 0.9 ×10⁻⁶ cm/s | 34.9 ± 0.9 ×10⁻⁶ cm/s | 40.7 ± 4 ×10⁻⁶ cm/s | 41.7 ± 2.8 ×10⁻⁶ cm/s | 28.06 µg/mL | 26.86 µg/mL | 56.34 µg/mL | 56.18 µg/mL | 100.57 µg/mL | Before transformed by intestinal bacteria [3, 13]: 104.39 µg/mL; transformation by intestinal bacteria (in words) [3]: not changed; transformation by intestinal bacteria (in words) ([3]; listed as 2″-O-β-L-Galactopyranosylorientin): not transformed; transport percentage ([4]; extract 10 mg/mL): 8.76%; transport percentage ([4]; extract 20 mg/mL): 4.23%; transport percentage ([4]; extract 30 mg/mL): 9.25%; After transported with everted gut sacs [4, 7]: 1.57 µg/mL; After transported with everted gut sacs [4, 8]: 1.69 µg/mL; After transported with everted gut sacs [4, 9]: 5.38 µg/mL; Papp at 180 min, 10 mg/mL [5]: 41.1 ± 2.5 ×10⁻⁶ cm/s; Papp at 180 min, 20 mg/mL [5]: 22.3 ± 4.1 ×10⁻⁶ cm/s; Papp at 180 min, 30 mg/mL [5]: 46.7 ± 2.5 ×10⁻⁶ cm/s; absorption mechanism ([6]; ref Liu et al. [2015]): transporter mediated efflux in addition to passive diffusion
3 | COc1ccc(C(=O)O)cc1OC [veratric acid] | 109.67% | 95.04% | 127.58% | 84.75% | 131.58% | 80.33% | 0.92 µg/mL | 1.62 µg/mL | 2.79 µg/mL | 104 ± 5 ×10⁻⁶ cm/s | 236 ± 5 ×10⁻⁶ cm/s | 105 ± 15 ×10⁻⁶ cm/s | 210 ± 4 ×10⁻⁶ cm/s | 109 ± 4 ×10⁻⁶ cm/s | 199 ± 4 ×10⁻⁶ cm/s | 3.22 µg/mL | 2.81 µg/mL | 7.44 µg/mL | 6.10 µg/mL | 12.78 µg/mL | Before transformed by intestinal bacteria [3, 13]: 13.39 µg/mL; transformation by intestinal bacteria (in words) [3]: not transformed; also recorded: not changed; transport percentage ([4]; extract 10 mg/mL): 27.04%; transport percentage ([4]; extract 20 mg/mL): 21.02%; transport percentage ([4]; extract 30 mg/mL): 28.12%; After transported with everted gut sacs [4, 7]: 0.59 µg/mL; After transported with everted gut sacs [4, 8]: 1.64 µg/mL; After transported with everted gut sacs [4, 9]: 2.02 µg/mL; Papp at 180 min, 10 mg/mL [5]: 127 ± 4 ×10⁻⁶ cm/s; Papp at 180 min, 20 mg/mL [5]: 111 ± 7 ×10⁻⁶ cm/s; Papp at 180 min, 30 mg/mL [5]: 142 ± 3 ×10⁻⁶ cm/s; absorption mechanism [6, 14]: mainly through passive diffusion
4 | O=c1cc(-c2ccc(O)cc2)oc2c([C@@H]3O[C@H](CO)[C@@H](O)[C@H](O)[C@H]3O)c(O)cc(O)c12 [vitexin] | 47.97% | 11.43% | 16.41% | 6.61% | 40.90% | 8.74% | 0.19 µg/mL | 0.23 µg/mL | 0.39 µg/mL | 39.6 ± 0.5 ×10⁻⁶ cm/s | 28.3 ± 2.7 ×10⁻⁶ cm/s | 13.6 ± 1.5 ×10⁻⁶ cm/s | 16.4 ± 0.5 ×10⁻⁶ cm/s | 33.8 ± 2.8 ×10⁻⁶ cm/s | 21.6 ± 0.5 ×10⁻⁶ cm/s | 3.10 µg/mL | 2.98 µg/mL | 5.70 µg/mL | 5.11 µg/mL | 11.19 µg/mL | Before transformed by intestinal bacteria [3, 13]: 11.04 µg/mL; transformation by intestinal bacteria (in words) [3]: not transformed; also recorded: not changed; transport percentage ([4]; extract 10 mg/mL): 5.55%; transport percentage ([4]; extract 20 mg/mL): 2.94%; transport percentage ([4]; extract 30 mg/mL): 7.55%; After transported with everted gut sacs [4, 7]: 0.11 µg/mL; After transported with everted gut sacs [4, 8]: 0.14 µg/mL; After transported with everted gut sacs [4, 9]: 0.50 µg/mL; Papp at 180 min, 10 mg/mL [5]: 26 ± 2.8 ×10⁻⁶ cm/s; Papp at 180 min, 20 mg/mL [5]: 15.5 ± 1.1 ×10⁻⁶ cm/s; Papp at 180 min, 30 mg/mL [5]: 38.1 ± 5 ×10⁻⁶ cm/s; absorption mechanism ([6]; ref Liu et al. [2015]): transporter mediated efflux in addition to passive diffusion

— paper PMC6130518, “Investigation of the effective components of the flowers of Trollius chinensis from the perspectives of intestinal bacterial transformation and intestinal absorption” (Pharmaceutical Biology, 2017)
